# Biological target: T1, 5α-reductase (Homo sapiens, UniProt P18405)
# T1 construct: host or cells: Hs68 human genital skin fibroblasts
# T1 sequence (P18405 1-259): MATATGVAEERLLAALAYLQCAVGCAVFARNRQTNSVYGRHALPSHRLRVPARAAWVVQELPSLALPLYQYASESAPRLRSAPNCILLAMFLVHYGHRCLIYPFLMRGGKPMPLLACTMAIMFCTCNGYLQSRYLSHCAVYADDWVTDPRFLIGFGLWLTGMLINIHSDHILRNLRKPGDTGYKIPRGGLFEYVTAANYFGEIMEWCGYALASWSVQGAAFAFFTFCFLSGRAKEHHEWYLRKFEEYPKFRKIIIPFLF
# Experiment: Inhibition of 5α-reductase activity (testosterone to 5α-dihydrotestosterone conversion) in Hs68 human genital skin fibroblasts
# Assay type: cell-based
# Details: 0.316 μM test compound, 12 μM testosterone substrate, four hours
# Procedure: Cell Culture:5α-Reductase activity was measured using Hs68 human genital skin fibroblasts which were originally purchased from the American Type Culture Collection (Rockville, Md.). The cells were grown in Dulbecco's Modified Eagle's Medium (DMEM) plus 10% stripped fetal bovine serum which was supplemented with amphotericin B (0.25 mg/ml) and gentamicin (25.0 mg/ml) (GIBCO, Grand Island, N.Y.). The serum was stripped of endogenous steroids by incubation with dextran-coated charcoal prior to its addition to the media. The cells were maintained at 37° C. in an atmosphere of 95% air, 5% CO2 and were passaged every 7-10 days by exposure to a trypsin-EDTA solution (0.025% trypsin, 0.265 mM EDTA). Prior to the assay the Hs68 cells were harvested and plated in Falcon 6-well plates (Becton Dickinson Labware, Lincoln Park, N.J.) at a density of 6×10^4 cells per well. The cells were allowed to grow for 4-5 days or until they reached approximately 80% confluence.
# Assay Method I:The substrate was prepared by dissolving unlabeled testosterone (Sigma Chemical Co., St. Louis, Mo.) in absolute ethanol followed by the addition of [7-^3 H (N)]-testosterone (23.3 Ci/mmole, New England Nuclear, Boston, Mass.). The steroid solution was taken to dryness under a stream of nitrogen and then reconstituted in media.
# Assay Method II:The substrate used for this method was [^14 C]-testosterone (50 mCi/mmol) (New England Nuclear, Boston, Mass.). An aliquot of the substrate was taken to dryness under a stream of nitrogen. After the addition of 30 μl of ethanol, the testosterone was dissolved in an appropriate volume of media.
# Sample Preparation:The test compounds were brought up in absolute ethanol in order to achieve the desired concentration. Subsequent dilutions of the test compounds with media were performed by the Biomek 1000 Automated Laboratory Workstation (Beckman Instruments, Palo Alto, Calif.). The existing media in the sample wells was aspirated and replaced with fresh media. Test compound was then added to the wells followed by the addition of 0.5 ml of substrate. The volume of the incubation mixture was maintained at 2.0 ml. The final substrate concentration was 12 μM. The concentration of the test compounds ranged from 0.001-150 μM. An additional three wells (background) containing media and substrate but no cells were also included to account for the non-enzymatic metabolism of the substrate. The plates were returned to the incubator and incubated for four hours.
# At the end of the incubation the media was collected and transferred to an extraction tube containing 5 ml of toluene-ethanol (9:1), to which has been added 20-250 μg each. of unlabeled carrier steroids (estriol, estradiol, estrone, 5α-androstan-3α,17β-diol, 5α-androstan-3β,17β-diol, -androstene-3,17-dione, 5α-androstan-3,17-dione, testosterone, and 5α-dihydrotestosterone) (Steraloids, Inc., Wilton, N.H.). In the case of Assay Method I the extraction tube also contained 1,000 and 10,000 dpm of [4-^14 C]-dihydrotestosterone (50-60 mCi/mmol) and [4-^14 C]-testosterone (50 mCi/mmol) (New England Nuclear, Boston, Mass.), respectively. The [^14 C]-steroids were included as recovery standards to quantify procedural losses. A small amount of NaCl was also added to the extraction tubes to prevent foaming. The samples were vortexed for approximately 30 seconds and then centrifuged for 10 minutes at 500×g. The organic phase was collected and the samples taken to dryness, redissolved in dichloromethane-methanol (9:1) and were analyzed by thin layer chromatography using one of the methods described below.
# Chromatography Method I (two-dimensional):The extracted samples were appled to silica gel 60F254, 0.25 mm thick, thin layer chromatography plates (EM Science, Cincinnati, Ohio). The plates were developed in the first dimension with a solvent system containing dichloromethaneethyl acetate-methanol-acetic acid (160:38:1.5:0.5, Mallinckrodt Inc., Paris, Ky.).
row,Structure (SMILES),inhibition at 0.316 µM
1,"CN1C(=O)CC[C@H]2c3ccc(Br)cc3C(C)(C)C[C@H]21 (relative stereo) [Example 29, cis-dl-8-bromo-4,6,6-trimethyl-1,2,3,4,4a,5,6,10b-octahydrobenzo[f]quinolin-3-one]",56.1%
2,"CN1C(=O)CC[C@H]2c3ccc(Br)cc3C(C)(C)C[C@@H]21 (relative stereo) [Example 28, trans-dl-8-bromo-4,6,6-trimethyl-1,2,3,4,4a,5,6,10b-ocathydrobenzo[f]quinolin-3-one]",78%
3,"C[C@H]1C[C@@H]2c3ccc(Cl)cc3CC[C@H]2N(C)C1=O (relative stereo) [Example 26B, trans-dl-8-chloro-2-(β-methyl)-4-methyl-1,2,3,4,4a,5,6,10b-octahydrobenzo[f]quinolin-3-one]",76.4%
4,"C[C@@H]1C[C@@H]2c3ccc(Cl)cc3CC[C@H]2N(C)C1=O (relative stereo) [Example 26A, trans-dl-8-chloro-2-(α-methyl)-4-methyl-1,2,3,4,4a,5,6,10b-octahydrobenzo[f]quinolin-3-one]",82.6%
5,"COc1ccc(CN2C(=O)CC[C@@]3(C)c4ccc(Cl)cc4CC[C@H]23)cc1 (relative stereo) [Example 44, Trans-4-(4-methoxybenzyl)-8-chloro-10b-methyl-1,2,3,4,4a,5,6,10b-octahydrobenzo[f]quinolin-3-one]",5.7%
6,"C[C@]12CCC(=O)N[C@@H]1CCc1cc(Cl)ccc12 (relative stereo) [Example 40, Trans-8-chloro-10b-methyl-1,2,3,4,4a,5,6,10-octhydrobenzo[f]-quinolin-3-one]",25.6%

# Same assay, conditions: 1.00 μM test compound, 12 μM testosterone substrate, four hours
row,Structure (SMILES),inhibition at 1 µM
1,"CN1C(=O)CC[C@H]2c3ccccc3CC[C@@H]21 (relative stereo) [Example 12, trans-dl-4-methyl-1,2,3,4,4a,5,6,10b-octahydrobenzo[f]quinolin-3-one]",78.7%
2,"CN1C(=O)CC[C@@]2(C)c3ccccc3CC[C@H]12 (relative stereo) [Example 37, trans-dl-4,10b-dimethyl-1,2,3,4,4a,5,6,10b-octahydrobenzo[f]quinolin-3-one]",40%
3,"CN1C(=O)CC[C@]2(C)c3ccc(Cl)cc3CC[C@H]12 (relative stereo) [Example 35, cis-dl-8-chloro-4,10b-dimethyl-1,2,3,4,4a,5,6,10b-octahydrobenzo[f]quinolin-3-one]",76.2%
4,"CN1C(=O)CC[C@H]2c3ccccc3CC[C@H]21 (relative stereo) [Example 13, cis-dl-4-methyl-1,2,3,4,4a,5,6,10b-octahydrobenzo[f]quinolin-3-one]",32%
5,"CN1C(=O)CC[C@H]2c3ccc(Cl)cc3CC[C@@H]21 (relative stereo) [Example 6, trans-dl-8-chloro-4-methyl-1,2,3,4,4a,5,6,10b-octahydrobenzo[f]quinolin-3-one]",100%

# Same assay, conditions: 15.00 μM test compound, 12 μM testosterone substrate, four hours
row,Structure (SMILES),inhibition at 15 µM
1,"C[C@]12CCC(=O)N[C@H]1CCc1cc(Cl)ccc12 (relative stereo) [Example 41, cis-8-chloro-10b-methyl-1,2,3,4,4a,5,6,10-octahydrobenzo[f]quinolin-3-one]",58.4%
2,"O=C1CC[C@H]2c3cc([N+](=O)[O-])ccc3CC[C@@H]2N1 (relative stereo) [Example 46, trans-dl-9-nitro-1,2,3,4,4a,5,6,10b-octahydrobenzo[f]quinolin-3-one]",69.9%
